Laboratory results published in patent US20030153538A1, “Antitumor agent” (The Nisshin OilliO, Ltd., priority 2000, published 2003).

Tests used:
B-16 melanoma cells = test: Tests for tumor cell-proliferation-inhibitory effect and tumor cell-extinction (cell growth rate from viable cell count); type: cell-based; conditions: for tumor cell-proliferation-inhibitory effect (in words): summary of Table 1; for tumor cell-killing effect (in words): at not less than 2 times the concentration required for proliferation inhibition
Method: The tumor cell-proliferation-inhibitory effect and the tumor cell-killing or extinction effect can be determined according to the following method using B-16 melanoma cells.
More specifically, B-16 melanoma cells are inoculated in each well of a 6-well plate in a desired amount, followed by allowing the plate to stand at 37° C. and 5% carbon dioxide concentration to thus cultivate the cells, adding a sample solution to be tested (maslinic acid, erythrodiol, ursolic acid, uvaol, betulinic acid, betulin and physiologically acceptable salts thereof or derivatives thereof) to each well in an amount sufficient for achieving a desired concentration, on the next day or after 5 days from the initiation of the cultivation, determination of viable cell count on the 6th day after the initiation of the cultivation and calculation of the cell growth rate based on the viable cell count to thus evaluate the tumor cell-proliferation-inhibitory effect and the tumor cell-killing effect.
Tests for determining the tumor cell-proliferation-inhibitory effect and the tumor cell-killing effect were conducted according to the following method. To a 6-well plate, a culture medium was dispensed in an amount of 2 mL/well, B-16 melanoma cells were then inoculated in a desired quantity and thereafter the melanoma cells were cultivated by allowing the plate or the culture medium to stand at 37° C. and a carbon dioxide concentration of 5%. On the following day, a test sample solution prepared was added to and admixed with the content of each well to a desired concentration and the cultivation of the melanoma cells was continued. The culture medium was then exchanged on the 5th day from the initiation of the cultivation and the test sample solution was again added to each well. On the next day, the culture medium was removed to recover the cultivated melanoma cells, followed by washing the cells with PBS (phosphate buffered saline), determination of the viable cell count, and then calculation of the cell growth rate according to the following equation 1. The tumor cell-proliferation-inhibitory effect and the tumor cell-killing effect of each test sample were evaluated on the basis of the cell growth rate thus determined.
Cell Growth Rate (%)=(A/B)×100
As comparative examples, oleanolic acid, β-amyrin, α-amyrin and lupeol were added to the culture medium to thus determine and evaluate the cell growth rate by the same method used above.

B16 melanoma cells = test: Test for malignant melanoma metastasis-inhibitory effect (lung metastasis after i.v. injection of B16 melanoma cells); type: in vivo, Whister female rats; conditions: rats; for RMI (rate of metastasis-inhibition): 100 mg/body wt. (kg), Oral Adm., every other day, lung lesions on 15th day; for tumor cell-metastasis-inhibitory effect compared with the control group (in words): metastasis of cancer to lung, summary of Table 2
Method: The tumor cell-metastasis-inhibitory effect can be evaluated according to, for instance, the malignant melanoma metastasis-inhibitory test. More specifically, a suspension of B16 melanoma cells prepared in advance is intravenously injected into Whister female rats, cotton seed oil in which each test substance is dissolved in a predetermined concentration is intraperitoneally administered through injection or orally administered using a sonde, every second day starting from 2nd day after the intravenous injection of the suspension. In this connection, only cotton seed oil is administered to the control group of animals. The lungs are extracted from these animals on the 15th day after the injection of the B16 melanoma cells, the lungs are examined to determine the number of cancer lesions thus metastasized to thus calculate the rate of metastasis-inhibition. The tumor cell-metastasis-inhibitory effect of each test sample is evaluated on the basis of the resulting rate of metastasis-inhibition.
Tests for evaluating the malignant melanoma metastasis-inhibitory effect of each test sample were conducted according to the following method. Whister female rats (6-week-old; average body weight: 160 g) were preliminarily bred with a powdery feed preparation having a composition of AIN-93 for one week, these animals were divided into 5 groups (8 animals per group) so as to equalize the average body weight and then a previously prepared suspension of B16 melanoma cells was intravenously injected into each rat. Subsequently, these animals were bred with a powdery feed preparation having a composition of AIN-93 and cotton seed oil in which each of maslinic acid, erythrodiol, ursolic acid, uvaol, betulinic acid, betulin, compounds of Synthetic Examples 1 and 2, or oleanolic acid had been dissolved in a predetermined concentration was intraperitoneally injected into each animal or orally administered thereto using a sonde, every other day starting from the 2nd day after the injection of the B 16 melanoma cells. In this connection, only cotton seed oil was administered to the control group. On the 15th day after the injection of the B 16 melanoma cells, the lung of each animal was taken out, the lungs were examined to determine the number of cancer lesions thus metastasized and to thus calculate the rate of metastasis-inhibition in accordance with the following equation 2. The tumor cell-metastasis-inhibitory effect of each test sample could be evaluated on the basis of the resulting rate of metastasis-inhibition.
Rate of Metastasis-Inhibition (%)=[(D−C)/D]×100
Wherein C: Average number of cancer lesions metastasized observed in each animal group; and D: average number of cancer lesions metastasized observed in the control group.
Maslinic acid, erythrodiol, ursolic acid, uvaol, betulinic acid, betulin and physiologically acceptable salts thereof or derivatives thereof as well as cotton seed oil as the control were inspected for the rate of metastasis-inhibition (RMI) using the dose and administration methods specified in the following Table 2. In addition, the same procedures used above were repeated except for using oleanolic acid as a comparative sample to thus evaluate the rate of metastasis-inhibition (RMI) thereof.

[1] = 5 ppm, viable cell count vs control on 6th day
[2] = 10 ppm, viable cell count vs control on 6th day
[3] = 15 ppm, viable cell count vs control on 6th day
[4] = 20 ppm, viable cell count vs control on 6th day
[5] = 25 ppm, viable cell count vs control on 6th day
[6] = Mus musculus, B16, 144 h, 5 ppm, viable cell count vs control on 6th day, read-out: Cell Growth Rate
[7] = Mus musculus, B16, 144 h, 15 ppm, viable cell count vs control on 6th day, read-out: Cell Growth Rate
[8] = Mus musculus, B16, 144 h, 25 ppm, viable cell count vs control on 6th day, read-out: Cell Growth Rate
[9] = Mus musculus, B16, 144 h, 50 ppm, viable cell count vs control on 6th day
[10] = 50 ppm, viable cell count vs control on 6th day
[11] = 30 ppm, viable cell count vs control on 6th day
[12] = 40 ppm, viable cell count vs control on 6th day

Compound	Cell Growth Rate (B-16 melanoma cells; [1])	Cell Growth Rate (B-16 melanoma cells; [2])	Cell Growth Rate (B-16 melanoma cells; [3])	Cell Growth Rate (B-16 melanoma cells; [4])	Cell Growth Rate (B-16 melanoma cells; [5])	tumor cell-proliferation-inhibitory effect (in words) (B-16 melanoma cells)	Cell Growth Rate (B-16 melanoma cells; [10])	other results
2,3-O-di-stearoyl-maslinic acid ethyl ester [Comp. Of Synthetic Ex. 4]	100%	82%	52%	13%	0%	–	–	–
2,3-O-di-triethylsilyl-maslinic acid triethylsilyl ester [Comp. Of Synthetic Ex. 3]	93%	75%	54%	21%	0%	–	–	–
C=C(C)[C@@H]1CC[C@]2(CO)CC[C@]3(C)[C@H](CC[C@@H]4[C@@]5(C)CC[C@H](O)C(C)(C)[C@@H]5CC[C@]43C)[C@@H]12 [Betulin]	–	–	–	–	–	quite strong tumor cell-proliferation-inhibitory effects	–	activity at 5 ppm (B-16 melanoma cells; [6]): 100%; activity at 15 ppm (B-16 melanoma cells; [7]): 78%; activity at 25 ppm (B-16 melanoma cells; [8]): 72%; activity at 50 ppm (B-16 melanoma cells; [9]): 63%; RMI (rate of metastasis-inhibition) (B16 melanoma cells): 38.9%; tumor cell-metastasis-inhibitory effect compared with the control group (in words) (B16 melanoma cells): significantly (P<0.05) inhibit any metastasis of cancer to lung
C=C(C)[C@@H]1CC[C@]2(C(=O)O)CC[C@]3(C)[C@H](CC[C@@H]4[C@@]5(C)CC[C@H](O)C(C)(C)[C@@H]5CC[C@]43C)[C@@H]12 [Betulinic acid]	–	–	–	–	–	quite strong tumor cell-proliferation-inhibitory effects	–	activity at 5 ppm (B-16 melanoma cells; [6]): 88%; activity at 15 ppm (B-16 melanoma cells; [7]): 77%; activity at 25 ppm (B-16 melanoma cells; [8]): 58%; activity at 50 ppm (B-16 melanoma cells; [9]): 38%; RMI (rate of metastasis-inhibition) (B16 melanoma cells): 51.2%; tumor cell-metastasis-inhibitory effect compared with the control group (in words) (B16 melanoma cells): significantly (P<0.05) inhibit any metastasis of cancer to lung
CCOC(=O)[C@]12CCC(C)(C)C[C@H]1C1=CC[C@@H]3[C@@]4(C)C[C@@H](O)[C@H](O)C(C)(C)[C@@H]4CC[C@@]3(C)[C@]1(C)CC2 [Comp. Of Synthetic Ex. 1, maslinic acid ethyl ester]	73%	49%	18%	0%	0%	–	–	RMI (rate of metastasis-inhibition) (B16 melanoma cells): 77.6%
CC(=O)O[C@@H]1C[C@]2(C)[C@H]3CC=C4[C@@H]5CC(C)(C)CC[C@]5(C(=O)O)CC[C@@]4(C)[C@]3(C)CC[C@H]2C(C)(C)[C@H]1OC(C)=O [Comp. Of Synthetic Ex. 2, 2,3-O-di-acetyl-maslinic acid]	89%	63%	34%	4%	0%	–	–	RMI (rate of metastasis-inhibition) (B16 melanoma cells): 74.8%
CC(=O)OCC12CCC(C)(C)CC1C1=CCC3C4(C)CCC(OC(C)=O)C(C)(C)C4CCC3(C)C1(C)CC2 (stereo not drawn) [Comp. Of Synthetic Ex. 5, 3,28-O-di-acetyl-erythrodiol]	68%	50%	23%	0%	0%	–	–	–
CCOC(=O)[C@]12CC[C@@H](C)[C@H](C)[C@H]1C1=CC[C@@H]3[C@@]4(C)CC[C@H](O)C(C)(C)[C@@H]4CC[C@@]3(C)[C@]1(C)CC2 [Comp. Of Synthetic Ex. 6, ursolic acid ethyl ester]	79%	–	72%	–	58%	–	47%	–
CC(=O)OC[C@]12CC[C@@H](C)[C@H](C)[C@H]1C1=CC[C@@H]3[C@@]4(C)CC[C@H](OC(C)=O)C(C)(C)[C@@H]4CC[C@@]3(C)[C@]1(C)CC2 [Comp. Of Synthetic Ex. 7, 3,28-O-di-acetyl-uvaol]	85%	–	71%	–	54%	–	42%	–
C=C(C)[C@@H]1CC[C@]2(C(=O)OCC)CC[C@]3(C)[C@H](CC[C@@H]4[C@@]5(C)CC[C@H](O)C(C)(C)[C@@H]5CC[C@]43C)[C@@H]12 [Comp. Of Synthetic Ex. 8, betulinic acid ethyl ester]	96%	–	81%	–	69%	–	53%	–
C=C(C)[C@@H]1CC[C@]2(COC(C)=O)CC[C@]3(C)[C@H](CC[C@@H]4[C@@]5(C)CC[C@H](OC(C)=O)C(C)(C)[C@@H]5CC[C@]43C)[C@@H]12 [Comp. Of Synthetic Ex. 9, 3,28-O-di-acetyl-betulin]	100%	–	79%	–	68%	–	60%	–
C=C(C)[C@@H]1CC[C@]2(C)CC[C@]3(C)[C@H](CC[C@@H]4[C@@]5(C)CC[C@H](O)C(C)(C)[C@@H]5CC[C@]43C)[C@@H]12 [Lupeol, lupeol, reference compound]	–	–	–	–	–	do not possess any tumor cell-proliferation-inhibitory effect at all	–	activity at 15 ppm (B-16 melanoma cells; [7]): 100%; activity at 20 ppm (B-16 melanoma cells; Mus musculus, B16, 144 h, 20 ppm, viable cell count vs control on 6th day, read-out: Cell Growth Rate): 100%; activity at 25 ppm (B-16 melanoma cells; [8]): 100%; activity at 30 ppm (B-16 melanoma cells; Mus musculus, B16, 144 h, 30 ppm, viable cell count vs control on 6th day): 100%; activity at 40 ppm (B-16 melanoma cells; Mus musculus, B16, 144 h, 40 ppm, viable cell count vs control on 6th day): 100%; activity at 50 ppm (B-16 melanoma cells; [9]): 100%; tumor cell-killing effect (in words) (B-16 melanoma cells): not observed
C[C@H]1[C@H](C)CC[C@]2(C)CC[C@]3(C)C(=CC[C@@H]4[C@@]5(C)CC[C@H](O)C(C)(C)[C@@H]5CC[C@]43C)[C@H]12 [α-Amyrin, α-amyrin, reference compound]	–	–	100%	100%	100%	do not possess any tumor cell-proliferation-inhibitory effect at all	100%	Cell Growth Rate (B-16 melanoma cells; [11]): 100%; Cell Growth Rate (B-16 melanoma cells; [12]): 100%; tumor cell-killing effect (in words) (B-16 melanoma cells): not observed
CC1(C)CC[C@]2(C)CC[C@]3(C)C(=CC[C@@H]4[C@@]5(C)CC[C@H](O)C(C)(C)[C@@H]5CC[C@]43C)[C@@H]2C1 [β-Amyrin, β-amyrin, reference compound]	–	–	100%	100%	100%	do not possess any tumor cell-proliferation-inhibitory effect at all	100%	Cell Growth Rate (B-16 melanoma cells; [11]): 100%; Cell Growth Rate (B-16 melanoma cells; [12]): 100%; tumor cell-killing effect (in words) (B-16 melanoma cells): not observed
